Measurements as given in paper PMC8961538, “N-Acylated and N-Alkylated 2-Aminobenzothiazoles Are Novel Agents That Suppress the Generation of Prostaglandin E2” (Biomolecules, 2022).

How the values were obtained:
[1] = test system: PGE2 generation in rat mesangial cells; assay: Suppression of IL-1β/forskolin-stimulated PGE2 generation in rat renal mesangial cells; type: cell-based; conditions: for inhibition at 3 µM / IC50: Rattus norvegicus, Mesangial cell; for IC50: IL-1β plus forskolin, read-out: EC50 (μM), inhibition of PGE2 generation
Description: Rat renal mesangial cells (clone MZ B1), isolated and characterized as previously described, were cultivated in RPMI 1640 medium supplemented with 10% fetal bovine serum; 10 mM 4-(2-hydroxyethyl)-1-piperazineethanesulfonic acid (HEPES), pH 7.4; 6 µg/mL of bovine insulin; 5 µg/mL of transferrin; 5 nM sodium selenite; 100 units/mL of penicillin; and 100 µg/mL of streptomycin. The cells were incubated for 4 h in Dulbecco’s modified Eagle’s medium (DMEM) containing 10 mM HEPES, pH 7.4, and 0.1 mg/mL of fatty acid-free bovine serum albumin (BSA), prior to stimulation.
Confluent mesangial cells in 24-well plates were pretreated for 20 min with varying concentrations of inhibitors and then stimulated for 24 h in a total volume of 400 µL of DMEM containing 0.1 mg/mL of BSA, in the absence or presence of 1 nM interleukin 1β (IL-1) plus 5 μM forskolin (Fk). Thereafter, the supernatants were collected and centrifuged for 5 min at 1000× g. The PGE2 in the supernatant was quantified using an enzyme-linked immunoassay (Enzo Life Sciences, Lörrach, Germany) following the manufacturer’s recommendations.
Statistical analysis of the data was performed using one-way analysis of variance (ANOVA) followed by a Bonferroni’s post hoc test for multiple comparisons (GraphPad Prism 8.4.3., San Diego, CA, USA). The half maximal effective concentrations (EC50) of the inhibitors were calculated using the same software.

[2] = test system: rat-paw carrageenan-induced edema; assay: Rat-paw carrageenan-induced-edema assay; type: in vivo; conditions: for In vivo anti-inflammatory activity compared with indomethacin: 0.01 mmol/kg, same dose as indomethacin
Description: The anti-inflammatory activities of selected aminobenzothiazole derivatives were determined by employing the rat-paw carrageenan-induced-edema assay, as previously described. Only male animals (180–220 g body weight) were used. Each group was composed of five animals. The animals were divided into three five-membered groups, and all the tested compounds were suspended in water (0.01 mmol/mL/kg body weight), with a few drops of Tween 80, and ground in a mortar before being administered intraperitoneally simultaneously. After treatment with the tested compounds in group 1, a 2nd group was used as a positive control (indomethacin at 0.01 mmol/mL/kg body weight, i.p.), and another group (3rd) served as the control in which water was administered (negative control). The compounds were injected intraperitoneally at the same time as carrageenan was given by intradermal injection. The rats were euthanized 3.5 h post-injection. The weight of the uninjected with carrageenan paw was subtracted from the weight of the injected paw for each animal. The change in paw weight for the treated animals was compared to that for the control animals and expressed as the percent inhibition of edema. The values of CPE % are the means from three different experiments with standard errors of the mean less than 10%. The statistical significance of the results was established with Student’s t-test, for * p < 0.01 and ** p < 0.05. All the animal experiments performed in the manuscript were conducted in compliance with institutional guidelines. Our studies were in accordance with recognized guidelines on animal experimentation (guidelines for the care and use of laboratory animals published by the Greek Government 160/1991, based on EU regulations 86/609). The rats were kept in the Centre of the School of Veterinary Medicine (EL54 BIO42), Aristotle University of Thessaloniki, which is registered by the official state veterinary authorities (presidential degree 56/2013, in harmonization with the European Directive 2010/63/EEC). The experimental protocols were approved by the Animal Ethics Committee of the Prefecture of Central Macedonia (no. 270079/2500).

[3] = 24 h, 3 μM, 1 nM IL-1β plus 5 μM forskolin

Row | Structure (SMILES) | inhibition at 3 µM [1, 3] [%] | melting point [°C] | further results
1 | COc1ccc(CCCNc2nc3ccccc3s2)cc1 [Compound 19c, N-(3-(4-Methoxyphenyl)Propyl)Benzo[d]Thiazol-2-Amine] | 62 | 104 to 106 | 
2 | c1ccc2c(CCCNc3nccs3)cccc2c1 [Compound 19e, N-(3-(Naphthalen-1-yl)Propyl)Thiazol-2-Amine] | > 80 | 94 to 97 | Concentration dependence of effect on PGE2 generation ([1]; 0.1 to 3 µM, low concentrations enhanced PGE2, 1 µM and 3 µM reduced it): biphasic effect
3 | O=C(CCCc1ccc2ccccc2c1)Nc1nc2ccccc2o1 [Compound 5d, N-(Benzo[d]Oxazol-2-yl)-4-(Naphthalen-2-yl)Butanamide] | 73 | 52 to 55 | 
4 | COC(CCc1ccccc1)Nc1nc2ccccc2s1 (centres unmarked) [Compound 18b, N-(1-Methoxy-3-Phenylpropyl)Benzo[d]Thiazol-2-Amine] | 0 |  | 
5 | O=C(Nc1nc2ccccc2s1)OCc1ccc2ccccc2c1 [Compound 16b, Naphthalen-2-ylmethyl Benzo[d]Thiazol-2-ylcarbamate] | 39 | 209 to 211 | 
6 | O=C(CCCc1ccc2ccccc2c1)Nc1nc2ccccc2[nH]1 [Compound 5f, N-(1H-Benzo[d]Imidazol-2-yl)-4-(Naphthalen-2-yl)Butanamide] | 66 | 56 to 58 | 
7 | O=C(COc1ccc2ccccc2c1)Nc1nc2ccccc2s1 [Compound 7, N-(Benzo[d]Thiazol-2-yl)-2-(Naphthalen-2-yloxy)Acetamide] | 41 | 153 to 155 | 
8 | COc1ccc(CCC(=O)Nc2nc3ccccc3s2)cc1 [Compound 11, N-(Benzo[d]Thiazol-2-yl)-3-(4-Methoxyphenyl)Propanamide] | > 80 | 172 to 174 | IC50 ([1]; 0.1 to 3 µM, 24 h): 0.916 µM
9 | O=C(NCCCc1ccc2ccccc2c1)c1nc2ccccc2s1 [Compound 14, N-(3-(Naphthalen-2-yl)Propyl)Benzo[d]Thiazole-2-Carboxamide] | 64 | 48 to 50 | 
10 | c1ccc2c(CCCNc3nc4ccccc4s3)cccc2c1 [Compound 19d, N-(3-(Naphthalen-1-yl)Propyl)Benzo[d]Thiazol-2-Amine] | > 80 | 134 to 137 | IC50 ([1]; 0.1 to 3 µM, 24 h): 0.399 µM
11 | COC(CCc1ccc2ccccc2c1)Nc1nc2ccccc2s1 (centres unmarked) [Compound 18a, N-(1-Methoxy-3-(Naphthalen-2-yl)Propyl)Benzo[d]Thiazol-2-Amine] | 46 |  | 
12 | COC(CCc1cccc2ccccc12)Nc1nc2ccc(OC(F)(F)F)cc2s1 (centres unmarked) [Compound 18h, N-(1-Methoxy-3-(Naphthalen-1-yl)Propyl)-6-(Trifluoromethoxy)Benzo[d]Thiazol-2-Amine] |  | 100 to 102 | 
13 | c1ccc2cc(CCCNc3nc4ccccc4o3)ccc2c1 [Compound 23a, N-(3-(Naphthalen-2-yl)Propyl)Benzo[d]Oxazol-2-Amine] | > 80 | 128 to 130 | IC50 ([1]; 0.1 to 3 µM, 24 h): 0.336 µM
14 | O=C(CCc1ccc2ccccc2c1)Nc1nc2ccccc2[nH]1 [Compound 5e, N-(1H-Benzo[d]Imidazol-2-yl)-3-(Naphthalen-2-yl)Propanamide] | 29 | 47 to 49 | 
15 | COc1ccc(/C=C/C(=O)Nc2nc3ccccc3s2)cc1 [Compound 9b, (E)-N-(Benzo[d]Thiazol-2-yl)-3-(4-Methoxyphenyl)Acrylamide] | 25 | 252 to 254 | 
16 | COc1ccc2c(c1)c(CC(=O)O)c(C)n2C(=O)c1ccc(Cl)cc1 [Indomethacin, reference compound] |  |  | % Reduction of Rat-Paw Edema ([2]; 0.01 mmol/kg i.p., given with carrageenan, 3.5 h post-injection): 37.3%

Row | Structure (SMILES) | inhibition at 3 µM [1, 3] [%] | melting point [°C] | further results
17 | COc1ccc(CCCNc2nc3ccccc3o2)cc1 [Compound 23b, N-(3-(4-Methoxyphenyl)Propyl)Benzo[d]Oxazol-2-Amine] | 79 | 85 to 87 | 
18 | FC(F)(F)Oc1ccc2nc(NCCCc3ccc4ccccc4c3)sc2c1 [Compound 19g, N-(3-(Naphthalen-2-yl)Propyl)-6-(Trifluoromethoxy)Benzo[d]Thiazol-2-Amine] | 0 | 150 to 152 | % Inhibition (at 3 μM) of PGE2 generation ([1]; 3 μM, 1 nM IL-1β plus 5 μM forskolin, 24 h, listed as 19): inactive
19 | c1ccc2c(OCCNc3nc4ccccc4o3)cccc2c1 [Compound 23d, N-(2-(Naphthalen-1-yloxy)Ethyl)Benzo[d]Oxazol-2-Amine] | 45 | 164 to 166 | 
20 | O=C(CCc1ccc2ccccc2c1)Nc1nc2ccccc2s1 [Compound 5b, N-(Benzo[d]Thiazol-2-yl)-3-(Naphthalen-2-yl)Propanamide] | > 80 | 46 to 48 | IC50 ([1]; 0.1 to 3 µM, 24 h): 0.173 µM; In vivo anti-inflammatory activity compared with indomethacin [2]: higher than that of indomethacin; In vivo anti-inflammatory activity compared with indomethacin ([2]; listed as GK510): greater than that of indomethacin
21 | c1ccc2cc(OCCNc3nc4ccccc4s3)ccc2c1 [Compound 25a, N-(2-(Naphthalen-2-yloxy)Ethyl)Benzo[d]Thiazol-2-Amine] | 63 | 170 to 172 | 
22 | c1ccc2c(OCCNc3nc4ccccc4s3)cccc2c1 [Compound 25b, N-(2-(Naphthalen-1-yloxy)Ethyl)Benzo[d]Thiazol-2-Amine] | 57 | 170 to 173 | 
23 | COC(CCc1ccc2ccccc2c1)Nc1nc2ccc(OC(F)(F)F)cc2s1 (centres unmarked) [Compound 18g, N-(1-Methoxy-3-(Naphthalen-2-yl)Propyl)-6-(Trifluoromethoxy)Benzo[d]Thiazol-2-Amine] |  | 78 to 80 | 
24 | O=C(CCc1ccc2ccccc2c1)Nc1nc2ccccc2o1 [Compound 5c, N-(Benzo[d]Oxazol-2-yl)-3-(Naphthalen-2-yl)Propanamide] | 49 | 49 to 51 | 
25 | c1ccc2cc(OCCNc3nc4ccccc4o3)ccc2c1 [Compound 23c, N-(2-(Naphthalen-2-yloxy)Ethyl)Benzo[d]Oxazol-2-Amine] | > 80 | 152 to 153 | IC50 ([1]; 0.1 to 3 µM, 24 h): 0.894 µM
26 | c1ccc(CCCNc2nc3ccccc3s2)cc1 [Compound 19b, N-(3-Phenylpropyl)Benzo[d]Thiazol-2-Amine] | > 80 | 99 to 102 | IC50 ([1]; 0.1 to 3 µM, 24 h): 0.177 µM
27 | FC(F)(F)Oc1ccc2nc(NCCCc3cccc4ccccc34)sc2c1 [Compound 19h, N-(3-(Naphthalen-1-yl)Propyl)-6-(Trifluoromethoxy)Benzo[d]Thiazol-2-Amine] | 0 | 115 to 116 | 
28 | COc1ccc(CCC(Nc2nc3ccccc3s2)OC)cc1 (centres unmarked) [Compound 18c, N-(1-Methoxy-3-(4-Methoxyphenyl)Propyl)Benzo[d]Thiazol-2-Amine] | 0 |  | 
29 | c1ccc(CCCNc2nccs2)cc1 [Compound 19f, N-(3-Phenylpropyl)Thiazol-2-Amine] | 20 | 83 to 84 | 
30 | O=C(CCCc1ccc2ccccc2c1)Nc1nc2ccccc2s1 [Compound 5a, N-(Benzo[d]Thiazol-2-yl)-4-(Naphthalen-2-yl)Butanamide] | 50 | 53 to 55 | 
31 | O=C(/C=C/c1ccc2ccccc2c1)Nc1nc2ccccc2s1 [Compound 9a, (E)-N-(Benzo[d]Thiazol-2-yl)-3-(Naphthalen-2-yl)Acrylamide] | 28 | 228 to 230 | 
32 | COc1ccc(COC(=O)Nc2nc3ccccc3s2)cc1 [Compound 16a, 4-Methoxybenzyl Benzo[d]Thiazol-2-ylcarbamate] | 15 | 141 to 143 | 
